The values that follow come from ChEMBL document CHEMBL3286126, “Synthesis of novel β-carboline based chalcones with high cytotoxic activity against breast cancer cells” (Bioorg Med Chem Lett, 2014).

A short description of assay [1]: Cytotoxicity against human MIAPaCa2 cells at 10 uM after 48 hrs by SRB assay. The following applies: MIA PaCa-2, 48 h. It counts as functional. (The SRB assay estimates cell density from bound dye.)
Assay [2] is described as follows: Cytotoxicity against human PLC/PRF/5 cells at 10 uM after 48 hrs by SRB assay. The assay is classed as functional. The note with it: PLC-PRF-5, 48 h.
In assay [3] the test system is SK-OV-3. Kind of assay: Cytotoxicity against human SKOV3 cells at 10 uM after 48 hrs by SRB assay. It counts as functional. The note with it: SK-OV-3, 48 h.
Assay [4] deals with DU-145. The experiment in a line: Cytotoxicity against human DU145 cells at 10 uM after 48 hrs by SRB assay. The following applies: DU-145, 48 h. The assay is classed as functional.
Assay [5] can be described thus: Cytotoxicity against human A172 cells at 10 uM after 48 hrs by SRB assay. The assay is classed as functional. The note with it: A 172, 48 h.
Assay [6] relates to A549. Kind of assay: Cytotoxicity against human A549 cells at 10 uM after 48 hrs by SRB assay. It counts as functional. The following applies: A549, 48 h.
In assay [7] the test system is MCF7. The experiment in a line: Cytotoxicity against human MCF7 cells at 10 uM after 48 hrs by SRB assay. The assay is classed as functional. The following applies: MCF7, 48 h.
A short description of assay [8]: Cytotoxicity against human DLD1 cells at 10 uM after 48 hrs by SRB assay. It counts as functional. The note with it: DLD-1, 48 h.
Assay [9] in a line: Cytotoxicity against human A172 cells after 48 hrs by SRB assay. The assay is classed as functional, cell-based. The following applies: A 172, 48 h.
For assay [10], the system named is MCF7. Kind of assay: Cytotoxicity against human MCF7 cells after 48 hrs by SRB assay. It counts as functional, cell-based.
In assay [11] the test system is A549. Kind of assay: Cytotoxicity against human A549 cells after 48 hrs by SRB assay. The following applies: A549, 48 h. It counts as functional, cell-based.
Assay [12] deals with PC-3. Kind of assay: Cytotoxicity against human PC3 cells after 48 hrs by SRB assay. The note with it: PC-3, 48 h. The assay is classed as functional, cell-based.
The test system of assay [13] is SK-OV-3. Kind of assay: Cytotoxicity against human SKOV3 cells after 48 hrs by SRB assay. The following applies: SK-OV-3, 48 h. The assay is classed as functional, cell-based.
Assay [14] deals with Vero. Kind of assay: Cytotoxicity against African green monkey Vero cells after 48 hrs by SRB assay. The following applies: Chlorocebus sabaeus. It counts as cell-based.
The test system of assay [15] is 4T1. Kind of assay: Cytotoxicity against mouse 4T1 cells after 48 hrs by SRB assay. It counts as functional, cell-based.
Assay [16] deals with MDA-MB-231. The experiment in a line: Cytotoxicity against human MDA-MB-231 cells after 48 hrs by SRB assay. It counts as functional, cell-based.

As a reminder, the inhibition is the relative decrease from the control value, in per cent. With `O=C(/C=C/c1nccc2c1[nH]c1ccccc12)c1ccc(Br)cc1`, the inhibition at 10 µM was -4.72% in assay [1]; 26.4% in assay [2]; -2.43% in [3]; -0.24% in [4]; 5.41% in assay [5]; 9.19% in assay [6]. Besides, the inhibition at 10 µM in assay [7] is 7.15%; in assay [8] it was 14.9%.

Regarding `O=C(/C=C/c1nccc2c1[nH]c1ccccc12)c1ccc(F)cc1`, the inhibition at 10 µM in assay [1] was -4.04%; in assay [2], 49.9%; in assay [3] it was 8.15%; in assay [4], -5.2%; in assay [5] it was 16.2%; in assay [6], 6.73%. Also, the inhibition at 10 µM in assay [7] came out at 9.92%; in [8], 25.6%.

In the case of `COc1cc(C(=O)/C=C/c2nccc3c4ccccc4n(C)c23)cc(OC)c1OC`, the inhibition at 10 µM in [1] worked out at 19%; in assay [2], 40.1%; in assay [3], 37.4%; in [4], 59.5%; in [5], 38.8%; in assay [6], 33.8%. Moreover, the inhibition at 10 µM in assay [7] amounted to 28.8%; in assay [8] it was 49.5%.

`CCn1c2ccccc2c2ccnc(/C=C/C(=O)c3ccc(OC)c(OC)c3)c21`: the inhibition at 10 µM turned out to be 15.3% in [1]; 56.2% in assay [2]; 57.6% in [3]; 56.8% in [4]; 70.1% in assay [5]; 35.6% in assay [6]. Also, the inhibition at 10 µM in [7] amounted to 29.6%; in assay [8] it was 66%.

For the compound `Cc1ccc(C(=O)/C=C/c2nccc3c4ccccc4n(C)c23)cc1`, the inhibition at 10 µM in assay [1] came to 13.7%; in [2] it was 32.2%; in assay [3], 46.2%; in assay [4], 45.7%; in [5], 19.2%; in assay [6] it was 13.2%. The results for the inhibition at 10 µM in assay [7] and in assay [8] were 20.8% and 35.8%, respectively.

Consider `COc1cccc2c1C(=O)c1c(O)c3c(c(O)c1C2=O)C[C@@](O)(C(=O)CO)C[C@@H]3O[C@H]1C[C@H](N)[C@H](O)[C@H](C)O1` [DOXORUBICIN], for which the inhibition at 10 µM is 85.1% in assay [1]; 90.7% in assay [2]; 69.2% in assay [3]; 73.9% in [4]; 67.6% in assay [5]; 69% in [6]. Moreover, the inhibition at 10 µM was 56.9% in [7] and 73.2% in assay [8].

Take `CCn1c2ccccc2c2ccnc(/C=C/C(=O)c3ccc(C)cc3)c21`: the inhibition at 10 µM in assay [1] came to 11.9%; in [2], 34.1%; in [3], 47.7%; in assay [4], 35%; in assay [5], 26.6%; in assay [6] it was 16.4%. The inhibition at 10 µM in assay [7] came out at 30%; in assay [8], 44.1%.

With `COc1ccc(C(=O)/C=C/c2nccc3c4ccccc4n(C)c23)cc1`, the inhibition at 10 µM in assay [1] was -0.03%; in [2], 16.9%; in assay [3], 37.4%; in [4] it was 9.1%; in assay [5] it was 0.18%; in assay [6] it was -3.88%. Further, the inhibition at 10 µM in [7] came out at 8.18%; in assay [8] it was 28.2%.

Consider `Cc1ccc(C(=O)/C=C/c2nccc3c2[nH]c2ccccc23)cc1`, for which the inhibition at 10 µM turned out to be 2.1% in assay [1]; 70.5% in [2]; 5.1% in [3]; 11.4% in [4]; 60.5% in assay [5]; 9.91% in [6]. The inhibition at 10 µM is 20.9% in assay [7] and 42.4% in assay [8].

Consider `O=C(/C=C/c1nccc2c1[nH]c1ccccc12)c1ccccc1`, for which the inhibition at 10 µM in assay [1] was 21.7%; in assay [2], 76.7%; in assay [3], 0.91%; in assay [4] it was 20.1%; in assay [5], 78.4%; in assay [6] it was 11.7%. The results for the inhibition at 10 µM in assay [7] and in [8] were 32.9% and 70.1%, respectively.

As to `O=C(/C=C/c1nccc2c1[nH]c1ccccc12)c1ccc(Cl)cc1`, the inhibition at 10 µM was -13.1% in assay [1]; 80.5% in assay [2]; 0.2% in assay [3]; 7.63% in assay [4]; 75.8% in [5]; 4.68% in [6]. Moreover, the inhibition at 10 µM in [7] was 15%; in assay [8] it was 41.2%.

As for `COc1ccc(C(=O)/C=C/c2nccc3c2[nH]c2ccccc23)cc1`, the inhibition at 10 µM in assay [1] came to 33.7%; in assay [2], 70.8%; in assay [3] it was 33.9%; in assay [4] it was 61.9%; in [5], 77.2%; in assay [6], 29.2%. Further, the inhibition at 10 µM in [7] worked out at 37.2%; in [8], 74.2%.

In general, IC50 refers to the concentration needed to halve the response being measured. On to `COc1cc(C(=O)/C=C/c2nccc3c2[nH]c2ccccc23)cc(OC)c1OC`, for which the inhibition at 10 µM is 84.8% in [1]; 73.9% in assay [2]; 36.6% in assay [3]; 76.1% in assay [4]; 65% in [5]; 73.4% in assay [6]. The inhibition at 10 µM in assay [7] is 86.8%; in [8], 80.6%. Also, the IC50 was above 10 µM in assay [9]; 3.29 µM in [10] (MCF7, 48 h); 5.41 µM in [11]; above 10 µM in assay [12]; above 10 µM in [13]; above 10 µM in assay [14]. Further, the Activity entry in assay [10], in assay [15] and in assay [16] was “Dose-dependent effect” each time.

On to `COc1ccc(C(=O)/C=C/c2nccc3c4ccccc4n(C)c23)cc1OC`, for which the inhibition at 10 µM in assay [1] worked out at 7.71%; in assay [2] it was 42.4%; in [3], 68.7%; in [4], 34.1%; in assay [5], 15.5%; in assay [6], 19.6%. The inhibition at 10 µM in [7] was determined as 12.9%; in assay [8] it was 45.3%.

As for `CCn1c2ccccc2c2ccnc(/C=C/C(=O)c3cc(OC)c(OC)c(OC)c3)c21`, the inhibition at 10 µM in [1] stood at 24.7%; in [2] it was 70.7%; in assay [3], 68.5%; in [4] it was 60.1%; in assay [5], 81.1%; in assay [6] it was 44.4%. Further, the inhibition at 10 µM in assay [7] worked out at 32.7%; in assay [8] it was 73.4%.

In the case of `CCn1c2ccccc2c2ccnc(/C=C/C(=O)c3ccccc3)c21`, the inhibition at 10 µM is 25% in assay [1]; 75.1% in assay [2]; 33.5% in assay [3]; 54.2% in [4]; 80.5% in assay [5]; 12.5% in [6]. For the same compound, the figures for the inhibition at 10 µM in [7] and in [8] were 39.3% and 77.6%, respectively.

Regarding `Cn1c2ccccc2c2ccnc(/C=C/C(=O)c3ccccc3)c21`, the inhibition at 10 µM in [1] is 25.5%; in assay [2] it was 64.9%; in assay [3], 28.6%; in assay [4], 53.2%; in [5] it was 75.5%; in [6], 19.3%. Moreover, the inhibition at 10 µM in [7] is 27.2%; in assay [8] it was 67.5%.

Turning to `CCn1c2ccccc2c2ccnc(/C=C/C(=O)c3ccc(OC)cc3)c21`, the inhibition at 10 µM is 9.18% in assay [1]; 61.6% in assay [2]; 43.7% in assay [3]; 52.5% in assay [4]; 39.2% in assay [5]; 21.2% in assay [6]. Further, the inhibition at 10 µM in assay [7] is 27.2%; in [8] it was 55.5%.
